Reference: paper PMC6660600, “Odorant Inhibition in Mosquito Olfaction” (iScience, 2019)

Key:
Experiment in all cases: voltage clamp of Xenopus oocytes
Format in all cases: cell-based
CquiOR32-CquiOrco [1] = target: T1, CquiOR32-CquiOrco (Culex quinquefasciatus, UniProt A0A3S7SHH6); conditions: inhibitor (reverse current), coexpressed with CquiOrco
T1 construct: gene OR32; full-length OR coexpressed with Orco in Xenopus oocytes; heteromeric ligand-gated cation channel; with Odorant receptor coreceptor Orco
T1 sequence (A0A3S7SHH6 1-397): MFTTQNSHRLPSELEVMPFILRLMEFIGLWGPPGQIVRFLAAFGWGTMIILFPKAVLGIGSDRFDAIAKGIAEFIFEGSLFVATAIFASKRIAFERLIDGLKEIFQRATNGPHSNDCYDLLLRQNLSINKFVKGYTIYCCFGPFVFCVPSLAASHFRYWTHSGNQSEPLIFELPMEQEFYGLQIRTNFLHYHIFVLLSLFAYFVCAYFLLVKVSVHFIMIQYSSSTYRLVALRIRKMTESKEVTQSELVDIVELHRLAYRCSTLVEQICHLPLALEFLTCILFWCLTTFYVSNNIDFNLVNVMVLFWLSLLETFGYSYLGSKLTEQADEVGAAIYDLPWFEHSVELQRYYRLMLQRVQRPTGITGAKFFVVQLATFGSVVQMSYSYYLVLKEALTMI
T1 sequence (Q309I4 1-480 partner): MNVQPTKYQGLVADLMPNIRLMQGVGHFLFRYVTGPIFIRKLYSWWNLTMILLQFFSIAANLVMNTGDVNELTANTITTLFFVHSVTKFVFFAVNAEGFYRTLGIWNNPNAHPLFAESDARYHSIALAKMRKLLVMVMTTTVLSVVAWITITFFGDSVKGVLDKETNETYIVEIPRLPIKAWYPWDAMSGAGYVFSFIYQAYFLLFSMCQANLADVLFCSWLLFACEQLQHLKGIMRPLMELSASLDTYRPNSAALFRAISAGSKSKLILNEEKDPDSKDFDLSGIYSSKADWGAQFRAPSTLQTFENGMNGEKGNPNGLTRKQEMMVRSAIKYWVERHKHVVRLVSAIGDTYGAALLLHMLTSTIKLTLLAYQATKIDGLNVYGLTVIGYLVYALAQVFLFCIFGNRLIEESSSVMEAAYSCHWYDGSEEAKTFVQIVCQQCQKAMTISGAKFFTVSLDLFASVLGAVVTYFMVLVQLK

CquiOR32-CquiOrco [2] = target: T1, CquiOR32-CquiOrco; conditions: agonist (inward current), dose-dependent, coexpressed with CquiOrco
CquiOR32-CquiOrco [3] = target: T1, CquiOR32-CquiOrco; conditions: agonist (inward current), absolute value, coexpressed with CquiOrco
CquiOR32-CquiOrco [4] = target: T1, CquiOR32-CquiOrco; conditions: inhibitor (reverse current), absolute value, coexpressed with CquiOrco
CquiOrco = target: T2, CquiOrco (Culex quinquefasciatus, UniProt Q309I4); conditions: Orco agonist; Orco expressed alone
T2 construct: full-length Orco expressed alone in Xenopus oocytes
T2 sequence (Q309I4 1-480): T1 sequence (Q309I4 1-480 partner)

SMILES: CCC(C)OC(=O)N1CCCCC1CCO (stereo not drawn) [picaridin]
- reverse current (CquiOR32-CquiOrco [1]; 1 mM (Figure 1A)): eucalyptol, fenchone, DEET, picaridin, IR3535, PMD, and other compounds generated currents in reverse direction

SMILES: COC(=O)c1ccccc1O [MS, methyl salicylate]
- inward current (CquiOR32-CquiOrco [2]): Methyl salicylate elicited inward currents, and eucalyptol generated currents in the reverse direction

SMILES: CC(=O)c1ccccc1 [acetophenone]
- inward current at 1 mM (CquiOR32-CquiOrco [3]): 58 ± 12 nA

SMILES: CC1=CCC(=C(C)C)CC1 [terpinolene]
- reverse current at 1 mM (CquiOR32-CquiOrco [4]): 38 ± 8 nA

SMILES: CCC(C)=O [2-butanone]
- inward current at 1 mM (CquiOR32-CquiOrco [3]): 45 ± 7 nA

SMILES: CCN(CC)C(=O)c1cccc(C)c1 [DEET]
- reverse current (CquiOR32-CquiOrco [1]; 1 mM (Figure 1A)): eucalyptol, fenchone, DEET, picaridin, IR3535, PMD, and other compounds generated currents in reverse direction

SMILES: O=C1CCCCC1 [CYC, cyclohexanone]
- inward current (CquiOR32-CquiOrco [2]; 1 mM (Figure 1A)): various odorants, including cyclohexanone, methyl salicylate, and 2-methyl-2-thiazoline

SMILES: CC1=CC=C(C(C)C)CC1 [α-terpinene]
- reverse current at 1 mM (CquiOR32-CquiOrco [4]): 43 ± 5 nA

SMILES: CC1=NCCS1 [2MT, 2-methyl-2-thiazoline]
- inward current (CquiOR32-CquiOrco [2]; 1 mM (Figure 1A)): various odorants, including cyclohexanone, methyl salicylate, and 2-methyl-2-thiazoline

SMILES: COc1ccccc1O [guaiacol]
- inward current at 1 mM (CquiOR32-CquiOrco [3]): 101 ± 11 nA

SMILES: OCCc1ccccc1 [2-phenylethanol]
- inward current at 1 mM (CquiOR32-CquiOrco [3]): 44 ± 9 nA

SMILES: CCc1ccc(NC(=O)CSc2nnc(-c3cccnc3)n2CC)cc1 [VUAA-1]
- current (CquiOrco): Response of a CquiOrco-expressing oocyte to Orco agonist, VUAA-1, is displayed in an inset.

SMILES: CCC1CCC(=O)O1 (stereo not drawn) [γ-hexalactone]
- inward current at 1 mM (CquiOR32-CquiOrco [3]): 115 ± 14 nA

SMILES: CC12CCC(CC1)C(C)(C)O2 [EUC, eucalyptol]
- reverse current (CquiOR32-CquiOrco [1]; dose-dependent, also reduces methyl salicylate response, proposed negative allosteric modulator): eucalyptol generated currents in the reverse direction

SMILES: CC12CCC(C1)C(C)(C)C2=O (stereo not drawn) [FEN, fenchone]
- reverse current (CquiOR32-CquiOrco [1]; 1 mM (Figure 1A)): eucalyptol, fenchone, DEET, picaridin, IR3535, PMD, and other compounds generated currents in reverse direction
